Data published in ChEMBL document CHEMBL2424599, “Design, synthesis, docking study and biological evaluation of some novel tetrahydrochromeno [3',4':5,6]pyrano[2,3-b]quinolin-6(7H)-one derivatives against acetyl- and butyrylcholinesterase” (Eur J Med Chem, 2013).

Key:
[1] = biological target: Cholinesterase (Equus caballus, UniProt P81908)
Description: Inhibition of equine serum BChE using butyrylthiocholine iodide as substrate preincubated for 10 mins prior to substrate addition by Ellman's method

[2] = biological target: T1, Acetylcholinesterase (Electrophorus electricus, UniProt O42275)
Description: Inhibition of electric eel AChE using acetylthiocholine iodide as substrate preincubated for 10 mins prior to substrate addition by Ellman's method

[3] = biological target: T1, Acetylcholinesterase; test: Mixed-type inhibition of electric eel AChE using acetylthiocholine iodide as substrate by Lineweaver-Burk plot analysis

T1 sequence (O42275 whole entry): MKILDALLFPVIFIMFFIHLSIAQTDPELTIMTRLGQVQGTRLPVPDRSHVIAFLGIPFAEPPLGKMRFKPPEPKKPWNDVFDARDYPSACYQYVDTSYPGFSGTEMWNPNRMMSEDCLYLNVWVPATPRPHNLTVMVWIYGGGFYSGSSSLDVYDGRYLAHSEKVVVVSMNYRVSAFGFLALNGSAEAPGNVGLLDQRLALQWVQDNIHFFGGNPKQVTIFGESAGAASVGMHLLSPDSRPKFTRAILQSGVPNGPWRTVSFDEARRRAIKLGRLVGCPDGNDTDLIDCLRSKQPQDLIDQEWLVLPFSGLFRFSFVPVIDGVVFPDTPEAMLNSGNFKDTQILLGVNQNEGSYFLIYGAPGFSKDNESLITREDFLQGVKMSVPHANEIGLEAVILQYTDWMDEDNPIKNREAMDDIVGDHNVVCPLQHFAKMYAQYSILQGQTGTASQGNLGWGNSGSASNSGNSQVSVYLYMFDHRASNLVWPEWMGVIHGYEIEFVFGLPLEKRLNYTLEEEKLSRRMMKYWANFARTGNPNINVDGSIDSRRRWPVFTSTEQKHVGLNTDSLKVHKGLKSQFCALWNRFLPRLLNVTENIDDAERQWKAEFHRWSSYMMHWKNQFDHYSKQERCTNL
Cholinesterase, sequence (P81908 whole entry): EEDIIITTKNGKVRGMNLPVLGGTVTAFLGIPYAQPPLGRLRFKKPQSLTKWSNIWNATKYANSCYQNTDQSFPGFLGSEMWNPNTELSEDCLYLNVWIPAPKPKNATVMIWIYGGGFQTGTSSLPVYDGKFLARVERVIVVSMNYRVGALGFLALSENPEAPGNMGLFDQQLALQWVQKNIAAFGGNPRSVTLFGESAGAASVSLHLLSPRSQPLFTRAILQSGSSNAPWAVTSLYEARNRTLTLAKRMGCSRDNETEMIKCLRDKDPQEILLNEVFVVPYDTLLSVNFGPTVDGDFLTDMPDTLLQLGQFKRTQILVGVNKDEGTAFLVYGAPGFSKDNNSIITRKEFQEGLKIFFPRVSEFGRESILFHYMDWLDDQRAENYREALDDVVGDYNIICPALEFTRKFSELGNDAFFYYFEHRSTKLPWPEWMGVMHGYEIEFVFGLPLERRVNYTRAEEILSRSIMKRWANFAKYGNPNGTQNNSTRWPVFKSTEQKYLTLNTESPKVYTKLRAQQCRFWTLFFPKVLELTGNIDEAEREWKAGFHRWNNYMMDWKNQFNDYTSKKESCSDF

`CCC1c2c(nc3c(c2N)CCCC3)Oc2c1c(=O)oc1ccccc21` (configuration not stated) was tested, and the IC50 [1] was 5.6 µM and the IC50 [2] was 0.266 µM.
With `CCCCC1c2c(nc3c(c2N)CCCC3)Oc2c1c(=O)oc1ccccc21` (configuration not stated) the IC50 [1] was 23 µM and the IC50 [2] was 0.057 µM.
`Nc1c2c(nc3c1C(c1ccccc1)c1c(c4ccccc4oc1=O)O3)CCCC2` (configuration not stated) gave an IC50 [1] of 1.7 µM and an IC50 [2] of 0.024 µM.
`Nc1c2c(nc3c1C(c1cccc(F)c1)c1c(c4ccccc4oc1=O)O3)CCCC2` (configuration not stated) gave an IC50 [1] of 0.89 µM and an IC50 [2] of 0.067 µM.
For `Nc1c2c(nc3c1C(c1ccc(F)cc1)c1c(c4ccccc4oc1=O)O3)CCCC2` (configuration not stated), the Ki [3] was 0.0224 µM, the IC50 [1] was 15.7 µM and the IC50 [2] was 0.005 µM.
`Nc1c2c(nc3c1C(c1ccccc1Cl)c1c(c4ccccc4oc1=O)O3)CCCC2` (configuration not stated) was tested, and the IC50 [1] was 4.9 µM and the IC50 [2] was 0.035 µM.
With `Nc1c2c(nc3c1C(c1cccc(Cl)c1)c1c(c4ccccc4oc1=O)O3)CCCC2` (configuration not stated) the IC50 [1] was greater than 30 µM and the IC50 [2] was 0.288 µM.
Compound `Nc1c2c(nc3c1C(c1ccc(Cl)cc1)c1c(c4ccccc4oc1=O)O3)CCCC2` (configuration not stated) has an IC50 [1] greater than 30 µM and an IC50 [2] of 0.093 µM.
`Nc1c2c(nc3c1C(c1ccc(Cl)cc1Cl)c1c(c4ccccc4oc1=O)O3)CCCC2` (configuration not stated) was tested, and the IC50 [1] was greater than 30 µM and the IC50 [2] was 0.05 µM.
Compound `Nc1c2c(nc3c1C(c1cccc([N+](=O)[O-])c1)c1c(c4ccccc4oc1=O)O3)CCCC2` (configuration not stated) has an IC50 [1] of 18.3 µM and an IC50 [2] of 0.141 µM.
For `Cc1ccc(C2c3c(nc4c(c3N)CCCC4)Oc3c2c(=O)oc2ccccc32)cc1` (configuration not stated), the IC50 [1] was greater than 30 µM and the IC50 [2] was 0.014 µM.
`COc1ccc(C2c3c(nc4c(c3N)CCCC4)Oc3c2c(=O)oc2ccccc32)cc1` (configuration not stated) was tested, and the IC50 [1] was 0.84 µM and the IC50 [2] was 0.016 µM.
For `COc1ccc(C2c3c(nc4c(c3N)CCCC4)Oc3c2c(=O)oc2ccccc32)cc1OC` (configuration not stated), the IC50 [1] was 2.1 µM and the IC50 [2] was 0.043 µM.
In the case of `COc1cc(C2c3c(nc4c(c3N)CCCC4)Oc3c2c(=O)oc2ccccc32)cc(OC)c1OC` (configuration not stated), the IC50 [1] is reported as 3.26 µM and the IC50 [2] is reported as 0.069 µM.
`Nc1c2c(nc3c1C(c1ccc4c(c1)OCO4)c1c(c4ccccc4oc1=O)O3)CCCC2` (configuration not stated) was tested, and the IC50 [1] was 0.57 µM and the IC50 [2] was 0.013 µM.
`Nc1c2c(nc3c1C(c1ccncc1)c1c(c4ccccc4oc1=O)O3)CCCC2` (configuration not stated) was tested, and the IC50 [1] was greater than 30 µM and the IC50 [2] was 0.053 µM.
In the case of `Nc1c2c(nc3c1C(c1cccs1)c1c(c4ccccc4oc1=O)O3)CCCC2` (configuration not stated), the IC50 [1] is reported as 6.7 µM and the IC50 [2] is reported as 0.084 µM.
`CC1c2c(nc3c(c2N)CCCC3)Oc2c1c(=O)oc1ccccc21` (configuration not stated) was tested, and the IC50 [1] was 1.22 µM and the IC50 [2] was 0.432 µM.
